From US20210323918A1, “COMPOSITIONS AND METHODS FOR SUPPRESSING AND/OR TREATING A GROWTH RELATED DISEASE AND/OR A CLINICAL CONDITION THEREOF” (CK Biotech Inc., priority 2018, published 2021)

Molecular target: GSK3β (human) (Homo sapiens, UniProt P49841)
Experiment: GSK3β kinase assay
Format: biochemical
Conditions: from dose-response curve, FIG. 4C; read-out: IC50, in vitro GSK3β activity
Method: GSK3β kinase assay. GSK3β (human) was incubated with 8 mM MOPS (pH 7.0), 0.2 mM EDTA, 20 μM […](p) EDEEE (phospho-GS2 peptide) (SEQ ID NO. 37), 10 mM Mg acetate, and [γ-33P-ATP] (specific activity approx. 500 cpm/pmol, concentration as required). The reaction was initiated by the addition of the Mg-ATP mixture. After incubation for 40 minutes at room temperature, the reaction was stopped by addition of 3% phosphoric acid solution. 10 μl of the reaction was then spatted onto a P30 filtermat and washed three times for 5 minutes in 50 mM phosphoric acid and once in methanol prior to drying and scintillation counting.

Chain of GSK3β (human) (P49841 whole entry): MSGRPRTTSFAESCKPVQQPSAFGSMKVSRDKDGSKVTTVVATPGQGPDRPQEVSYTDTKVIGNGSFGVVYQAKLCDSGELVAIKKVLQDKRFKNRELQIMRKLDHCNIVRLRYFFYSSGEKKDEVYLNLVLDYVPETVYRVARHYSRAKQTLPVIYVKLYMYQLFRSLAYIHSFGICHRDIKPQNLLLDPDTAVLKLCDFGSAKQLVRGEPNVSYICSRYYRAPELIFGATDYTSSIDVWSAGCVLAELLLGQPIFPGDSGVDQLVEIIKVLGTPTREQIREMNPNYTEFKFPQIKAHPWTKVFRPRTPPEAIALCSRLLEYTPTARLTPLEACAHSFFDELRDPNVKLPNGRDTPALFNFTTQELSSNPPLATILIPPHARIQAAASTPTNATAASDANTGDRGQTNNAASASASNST

For `CO/N=C1/C(=C2/C(=O)Nc3cc(Cl)c(Cl)cc32)Nc2ccccc21` [KY19382, 5,6-dichloroindirubin-3′-methoxime], the IC50 was 0.01 µM.
